Results reported in ChEMBL document CHEMBL4265936, “Pyrazolo[4,3-b]pyrimido[4,5-e][1,4]diazepine derivatives as new multi-targeted inhibitors of Aurora A/B and KDR” (Eur J Med Chem, 2018).

Experiments:
[1] = target: Tyrosine-protein kinase ABL1 (Homo sapiens) (UniProt P00519); settings: at 1000 nM
Description: Inhibition of recombinant human ABL at 1000 nM after 60 mins by ELISA relative to control

[2] = target: Proto-oncogene tyrosine-protein kinase receptor Ret (Homo sapiens) (UniProt P07949); test: Inhibition of recombinant human RET at 100 nM after 60 mins by ELISA relative to control
MKN-74 [3] = test: Cell cycle arrest in human MKN74 cells assessed as accumulation at G2/M phase after 24 hrs by propidium iodide staining based flow cytometry; type: functional
[4] = target: Receptor tyrosine-protein kinase erbB-4 (Homo sapiens) (UniProt Q15303); test: Inhibition of recombinant human Erbb4 at 100 nM after 60 mins by ELISA relative to control
[5] = Terminal elimination half life in ICR mouse at 25 mg/kg, po administered as single dose by LC-MS analysis; type: ADME, organism-based; settings: in vivo, read-out: beta t1/2 (converted)
[6] = target: Receptor tyrosine-protein kinase erbB-2 (Homo sapiens) (UniProt P04626); test: Inhibition of recombinant human Erbb2 at 100 nM after 60 mins by ELISA relative to control
Sequence of Receptor tyrosine-protein kinase erbB-2 (Homo sapiens) (P04626 whole entry): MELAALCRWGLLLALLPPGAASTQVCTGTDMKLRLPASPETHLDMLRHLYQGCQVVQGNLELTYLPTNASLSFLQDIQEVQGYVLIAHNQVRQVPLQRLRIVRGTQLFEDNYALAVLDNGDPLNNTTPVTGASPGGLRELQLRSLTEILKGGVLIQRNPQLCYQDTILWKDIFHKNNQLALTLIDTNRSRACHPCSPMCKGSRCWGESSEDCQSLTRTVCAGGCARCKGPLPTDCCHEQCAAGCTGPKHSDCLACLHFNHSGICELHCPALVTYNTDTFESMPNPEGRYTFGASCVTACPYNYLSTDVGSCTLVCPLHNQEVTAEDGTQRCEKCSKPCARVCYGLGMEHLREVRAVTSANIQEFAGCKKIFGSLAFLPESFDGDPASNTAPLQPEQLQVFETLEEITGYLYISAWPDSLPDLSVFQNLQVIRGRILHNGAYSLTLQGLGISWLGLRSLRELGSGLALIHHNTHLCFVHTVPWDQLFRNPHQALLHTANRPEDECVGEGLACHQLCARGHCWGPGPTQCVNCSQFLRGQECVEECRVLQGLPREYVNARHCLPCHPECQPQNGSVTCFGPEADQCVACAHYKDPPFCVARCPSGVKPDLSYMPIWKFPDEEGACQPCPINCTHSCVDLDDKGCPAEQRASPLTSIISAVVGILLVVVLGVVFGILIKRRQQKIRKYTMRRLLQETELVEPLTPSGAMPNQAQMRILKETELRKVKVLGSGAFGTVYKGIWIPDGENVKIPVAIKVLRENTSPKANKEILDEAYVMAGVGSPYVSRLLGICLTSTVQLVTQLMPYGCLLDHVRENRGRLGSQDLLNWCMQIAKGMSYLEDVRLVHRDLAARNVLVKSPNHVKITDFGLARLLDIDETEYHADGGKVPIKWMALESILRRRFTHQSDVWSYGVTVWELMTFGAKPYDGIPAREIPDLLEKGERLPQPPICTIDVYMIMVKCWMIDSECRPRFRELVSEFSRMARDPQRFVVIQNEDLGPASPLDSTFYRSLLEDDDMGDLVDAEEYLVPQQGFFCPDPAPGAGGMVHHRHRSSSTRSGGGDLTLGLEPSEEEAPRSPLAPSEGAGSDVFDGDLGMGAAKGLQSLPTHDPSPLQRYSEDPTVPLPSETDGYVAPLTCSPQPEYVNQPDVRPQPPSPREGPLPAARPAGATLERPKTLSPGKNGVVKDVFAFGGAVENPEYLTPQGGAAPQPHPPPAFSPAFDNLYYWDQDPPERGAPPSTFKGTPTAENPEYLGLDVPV

[7] = Volume of distribution at steady state in ICR mouse at 5 mg/kg, iv administered as single dose by LC-MS analysis; type: ADME, organism-based; settings: in vivo, read-out: Vdss
[8] = Tmax in ICR mouse at 25 mg/kg, po administered as single dose by LC-MS analysis; type: ADME, organism-based; settings: in vivo
Aurora kinase A = target: T1, Aurora kinase A (Homo sapiens, UniProt O14965); test: Inhibition of Aurora A (unknown origin) using STK S2 as substrate after 40 mins by HTRF assay
T1 sequence (O14965 whole entry): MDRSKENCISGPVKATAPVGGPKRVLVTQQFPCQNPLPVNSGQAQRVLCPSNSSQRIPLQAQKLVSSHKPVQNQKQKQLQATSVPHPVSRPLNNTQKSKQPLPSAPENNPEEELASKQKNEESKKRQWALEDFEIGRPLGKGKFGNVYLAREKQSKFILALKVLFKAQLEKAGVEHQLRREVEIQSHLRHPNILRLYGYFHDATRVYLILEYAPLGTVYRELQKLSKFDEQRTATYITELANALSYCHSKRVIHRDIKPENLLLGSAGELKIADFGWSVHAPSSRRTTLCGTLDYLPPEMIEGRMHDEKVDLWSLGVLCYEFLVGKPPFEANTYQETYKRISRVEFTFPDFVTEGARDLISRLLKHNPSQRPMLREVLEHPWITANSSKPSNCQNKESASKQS

[9] = target: Tyrosine-protein kinase ABL1 (Homo sapiens) (UniProt P00519); test: Inhibition of recombinant human ABL at 100 nM after 60 mins by ELISA relative to control
[10] = target: Epidermal growth factor receptor (Homo sapiens) (UniProt P00533); settings: at 1000 nM
Description: Inhibition of recombinant human EGFR at 1000 nM after 60 mins by ELISA relative to control

[11] = Terminal elimination half life in ICR mouse at 5 mg/kg, iv administered as single dose by LC-MS analysis; type: ADME, organism-based; settings: in vivo, read-out: beta t1/2 (converted)
BGC-823 = test: Antiproliferative activity against human BGC823 cells after 72 hrs by sulforhodamine B assay; type: functional, cell-based; settings: BGC-823, 72 h
Mus musculus [12] = test: AUC (0 to t) in ICR mouse at 25 mg/kg, po administered as single dose by LC-MS analysis; type: ADME, organism-based; settings: in vivo
SGC-7901 [13] = test: Cell cycle arrest in human SGC7901 cells assessed as accumulation at G2/M phase after 24 hrs by propidium iodide staining based flow cytometry; type: functional
Mus musculus [14] = test: AUC (0 to t) in ICR mouse at 5 mg/kg, iv administered as single dose by LC-MS analysis; type: ADME, organism-based; settings: in vivo
Aurora kinase B = Aurora kinase B (Homo sapiens, UniProt Q96GD4); test: Inhibition of Aurora B (unknown origin) using STK S2 as substrate after 30 mins by HTRF assay
Sequence of Aurora kinase B (Q96GD4 whole entry): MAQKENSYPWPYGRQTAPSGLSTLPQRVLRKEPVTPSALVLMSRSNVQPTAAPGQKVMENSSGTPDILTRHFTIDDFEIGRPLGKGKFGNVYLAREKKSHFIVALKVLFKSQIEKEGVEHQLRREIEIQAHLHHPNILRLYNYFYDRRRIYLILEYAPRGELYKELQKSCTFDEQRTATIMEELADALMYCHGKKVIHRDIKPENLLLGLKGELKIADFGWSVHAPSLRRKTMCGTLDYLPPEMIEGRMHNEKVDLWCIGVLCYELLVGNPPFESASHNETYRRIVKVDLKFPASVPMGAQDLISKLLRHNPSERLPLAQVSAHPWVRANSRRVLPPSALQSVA

SNU-5 [15] = test: Antitumor activity against human SNU5 cells xenografted in nude mouse assessed as delay in tumor growth at 20 mg/kg, po qd for 21 days relative to control; type: functional
[16] = target: Insulin-like growth factor 1 receptor (Homo sapiens) (UniProt P08069); test: Inhibition of recombinant human IGF1R at 1000 nM after 60 mins by ELISA relative to control
[17] = Oral bioavailability in ICR mouse at 25 mg/kg administered as single dose by LC-MS analysis; type: ADME, organism-based; settings: in vivo
SNU-5 [18] = test: Antiproliferative activity against human SNU5 cells after 72 hrs by CCK8 assay; type: functional, cell-based; settings: SNU-5, 72 h
[19] = target: Receptor tyrosine-protein kinase erbB-4 (Homo sapiens) (UniProt Q15303); test: Inhibition of recombinant human Erbb4 at 1000 nM after 60 mins by ELISA relative to control
[20] = target: Vascular endothelial growth factor receptor 1 (Homo sapiens) (UniProt P17948); test: Inhibition of recombinant human VEGFR1 at 1000 nM after 60 mins by ELISA relative to control
[21] = target: Proto-oncogene tyrosine-protein kinase Src (Homo sapiens) (UniProt P12931); test: Inhibition of recombinant human c-SRC at 100 nM after 60 mins by ELISA relative to control
Sequence of Proto-oncogene tyrosine-protein kinase Src (Homo sapiens) (P12931 2-536 limits assumed): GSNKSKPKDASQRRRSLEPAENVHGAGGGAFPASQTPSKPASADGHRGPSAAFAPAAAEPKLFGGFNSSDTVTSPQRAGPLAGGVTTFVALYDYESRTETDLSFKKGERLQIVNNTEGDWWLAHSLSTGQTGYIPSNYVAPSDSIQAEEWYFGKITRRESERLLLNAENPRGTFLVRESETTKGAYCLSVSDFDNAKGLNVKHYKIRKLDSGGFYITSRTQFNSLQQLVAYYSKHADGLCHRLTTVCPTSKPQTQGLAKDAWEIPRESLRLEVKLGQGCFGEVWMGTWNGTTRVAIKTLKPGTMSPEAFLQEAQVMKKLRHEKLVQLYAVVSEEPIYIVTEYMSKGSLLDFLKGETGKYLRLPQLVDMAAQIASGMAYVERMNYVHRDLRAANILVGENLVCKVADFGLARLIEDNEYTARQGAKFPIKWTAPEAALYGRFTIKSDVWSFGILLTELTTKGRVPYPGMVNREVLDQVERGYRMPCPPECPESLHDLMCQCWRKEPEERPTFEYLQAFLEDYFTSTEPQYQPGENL

[22] = MRT in ICR mouse at 5 mg/kg, iv administered as single dose by LC-MS analysis; type: ADME, organism-based; settings: in vivo
[23] = target: Platelet-derived growth factor receptor beta (Homo sapiens) (UniProt P09619); test: Inhibition of recombinant human PDGFRbeta at 1000 nM after 60 mins by ELISA relative to control
Sequence of Platelet-derived growth factor receptor beta (Homo sapiens) (P09619 whole entry): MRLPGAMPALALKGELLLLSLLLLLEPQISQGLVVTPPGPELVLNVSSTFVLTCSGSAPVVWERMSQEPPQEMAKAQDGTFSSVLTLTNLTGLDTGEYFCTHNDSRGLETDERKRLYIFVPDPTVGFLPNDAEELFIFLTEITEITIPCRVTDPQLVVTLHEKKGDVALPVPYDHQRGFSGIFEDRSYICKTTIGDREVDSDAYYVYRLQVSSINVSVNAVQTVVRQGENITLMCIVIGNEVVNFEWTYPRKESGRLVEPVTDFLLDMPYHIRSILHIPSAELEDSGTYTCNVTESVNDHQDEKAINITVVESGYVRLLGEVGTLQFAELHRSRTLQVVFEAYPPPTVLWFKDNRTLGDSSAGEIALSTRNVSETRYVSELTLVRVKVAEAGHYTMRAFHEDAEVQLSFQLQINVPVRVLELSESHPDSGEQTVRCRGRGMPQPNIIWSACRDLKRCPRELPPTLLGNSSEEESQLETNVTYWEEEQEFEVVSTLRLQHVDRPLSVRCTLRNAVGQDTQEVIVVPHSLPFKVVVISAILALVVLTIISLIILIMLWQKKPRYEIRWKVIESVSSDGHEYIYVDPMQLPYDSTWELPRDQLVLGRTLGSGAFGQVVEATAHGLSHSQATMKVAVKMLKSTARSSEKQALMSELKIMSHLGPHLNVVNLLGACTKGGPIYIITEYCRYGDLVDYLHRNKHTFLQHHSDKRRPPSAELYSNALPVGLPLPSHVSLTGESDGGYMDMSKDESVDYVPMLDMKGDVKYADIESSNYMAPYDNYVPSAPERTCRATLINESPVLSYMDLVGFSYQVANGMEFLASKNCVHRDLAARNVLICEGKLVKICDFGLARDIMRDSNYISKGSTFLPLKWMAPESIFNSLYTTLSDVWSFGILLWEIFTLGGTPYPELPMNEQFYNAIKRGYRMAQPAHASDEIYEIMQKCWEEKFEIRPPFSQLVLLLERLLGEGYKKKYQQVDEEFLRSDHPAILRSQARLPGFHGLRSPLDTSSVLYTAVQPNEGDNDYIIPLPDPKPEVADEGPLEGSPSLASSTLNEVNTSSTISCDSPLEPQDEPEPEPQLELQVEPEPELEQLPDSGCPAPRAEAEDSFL

SGC-7901 [24] = test: Antiproliferative activity against human SGC7901 cells after 72 hrs by sulforhodamine B assay; type: functional, cell-based; settings: SGC-7901, 72 h
[25] = target: Platelet-derived growth factor receptor beta (Homo sapiens) (UniProt P09619); test: Inhibition of recombinant human PDGFRbeta at 100 nM after 60 mins by ELISA relative to control
[26] = target: Vascular endothelial growth factor receptor 1 (Homo sapiens) (UniProt P17948); test: Inhibition of recombinant human VEGFR1 at 100 nM after 60 mins by ELISA relative to control
MKN-45 [27] = test: Cell cycle arrest in human MKN45 cells assessed as accumulation at G2/M phase after 24 hrs by propidium iodide staining based flow cytometry; type: functional
[28] = target: Ephrin type-A receptor 2 (Homo sapiens) (UniProt P29317); test: Inhibition of recombinant human EPHA2 at 100 nM after 60 mins by ELISA relative to control
MKN-74 [29] = test: Antiproliferative activity against human MKN74 cells after 72 hrs by sulforhodamine B assay; type: functional, cell-based; settings: MKN-74, 72 h
[30] = Cmax in ICR mouse at 25 mg/kg, po administered as single dose by LC-MS analysis; type: ADME, organism-based; design: dose 25 mg/kg, route oral; settings: in vivo
SNU-5 [31] = test: Cell cycle arrest in human SNU5 cells assessed as accumulation at G2/M phase after 24 hrs by propidium iodide staining based flow cytometry; type: functional
[32] = target: Vascular endothelial growth factor receptor 2 (Homo sapiens, UniProt P35968); test: biochemical; type: cell-based, Sf21
Description: Inhibition of recombinant human N-terminal His6-tagged KDR (790 to end residues) expressed in baculovirus infected Sf21 insect cells after 60 mins by ELISA

[33] = target: Epidermal growth factor receptor (Homo sapiens) (UniProt P00533); test: Inhibition of recombinant human EGFR at 100 nM after 60 mins by ELISA relative to control
[34] = target: Insulin-like growth factor 1 receptor (Homo sapiens) (UniProt P08069); test: Inhibition of recombinant human IGF1R at 100 nM after 60 mins by ELISA relative to control
Mus musculus [35] = test: Toxicity in nude mouse xenografted with human SNU5 cells assessed as mortality at 20 mg/kg, po qd for 21 days; type: organism-based; settings: in vivo, 504 h
[36] = target: Proto-oncogene tyrosine-protein kinase Src (Homo sapiens) (UniProt P12931); settings: at 1000 nM
Description: Inhibition of recombinant human c-SRC at 1000 nM after 60 mins by ELISA relative to control

[37] = target: Receptor tyrosine-protein kinase erbB-2 (Homo sapiens) (UniProt P04626); test: Inhibition of recombinant human Erbb2 at 1000 nM after 60 mins by ELISA relative to control
Mus musculus [38] = test: Toxicity in nude mouse xenografted with human SNU5 cells assessed as body weight at 20 mg/kg, po qd for 21 days (reference value: 19.6 g); type: organism-based; settings: in vivo, 504 h
MKN-45 [39] = test: Antiproliferative activity against human MKN45 cells after 72 hrs by sulforhodamine B assay; type: functional, cell-based; settings: MKN-45, 72 h
[40] = Clearance in ICR mouse at 5 mg/kg, iv administered as single dose by LC-MS analysis; type: ADME, organism-based; settings: in vivo
[41] = target: Proto-oncogene tyrosine-protein kinase receptor Ret (Homo sapiens) (UniProt P07949); test: Inhibition of recombinant human RET at 1000 nM after 60 mins by ELISA relative to control

Sequence of Tyrosine-protein kinase ABL1 (Homo sapiens) (P00519 whole entry): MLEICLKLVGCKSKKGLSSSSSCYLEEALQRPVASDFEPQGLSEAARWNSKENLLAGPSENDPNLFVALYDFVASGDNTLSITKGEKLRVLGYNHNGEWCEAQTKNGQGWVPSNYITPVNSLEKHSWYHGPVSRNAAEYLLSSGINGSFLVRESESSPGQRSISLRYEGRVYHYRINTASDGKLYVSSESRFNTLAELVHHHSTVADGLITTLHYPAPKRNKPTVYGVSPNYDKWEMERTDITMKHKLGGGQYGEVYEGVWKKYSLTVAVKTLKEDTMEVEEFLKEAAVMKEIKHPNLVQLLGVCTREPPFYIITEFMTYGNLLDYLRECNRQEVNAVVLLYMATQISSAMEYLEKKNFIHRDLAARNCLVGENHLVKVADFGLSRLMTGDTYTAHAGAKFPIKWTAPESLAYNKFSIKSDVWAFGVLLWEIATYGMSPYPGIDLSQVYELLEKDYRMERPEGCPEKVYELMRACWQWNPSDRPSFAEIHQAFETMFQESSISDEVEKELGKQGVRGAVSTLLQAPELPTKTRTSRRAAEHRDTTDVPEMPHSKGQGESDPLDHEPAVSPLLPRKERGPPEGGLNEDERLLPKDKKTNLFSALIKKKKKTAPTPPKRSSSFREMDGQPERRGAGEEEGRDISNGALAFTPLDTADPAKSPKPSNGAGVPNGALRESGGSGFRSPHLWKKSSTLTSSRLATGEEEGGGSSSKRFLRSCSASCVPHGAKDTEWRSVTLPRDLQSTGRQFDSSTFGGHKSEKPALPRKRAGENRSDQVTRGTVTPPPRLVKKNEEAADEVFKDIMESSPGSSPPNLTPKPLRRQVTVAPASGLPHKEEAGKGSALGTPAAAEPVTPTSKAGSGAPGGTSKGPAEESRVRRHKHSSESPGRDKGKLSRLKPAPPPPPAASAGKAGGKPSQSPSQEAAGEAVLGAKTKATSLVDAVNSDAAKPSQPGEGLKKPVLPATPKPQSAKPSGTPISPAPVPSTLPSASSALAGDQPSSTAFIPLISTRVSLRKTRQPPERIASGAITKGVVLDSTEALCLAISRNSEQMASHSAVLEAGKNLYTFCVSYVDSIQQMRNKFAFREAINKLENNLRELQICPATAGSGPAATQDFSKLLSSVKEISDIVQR

Compound: Cc1ccc(C2=Nc3c(n[nH]c3C)Nc3nc(N4CCOCC4)ncc32)cc1
- inhibition [1]: 0%
- inhibition [2]: 28.7%
- Activity (MKN-74 [3]): Dose-dependent effect
- inhibition [4]: 12%
- half-life [5]: 3.27 h
- inhibition [6]: 3%
- Vd [7]: 2.01 L/kg
- Tmax [8]: 0.5 h
- IC50 (Aurora kinase A): 46.2 nM
- inhibition [9]: 0%
- inhibition [10]: 37.4%
- half-life [11]: 1.53 h
- IC50 (BGC-823): > 10000 nM
- AUCt (Mus musculus [12]): 15335 ng·mL·h
- Activity (SGC-7901 [13]): Dose-dependent effect
- AUCt (Mus musculus [14]): 4724 ng·mL·h
- IC50 (Aurora kinase B): 37.6 nM
- T/C (SNU-5 [15]): 61.63%
- inhibition [16]: 26.8%
- bioavailability [17]: 63.8%
- IC50 (SNU-5 [18]): 1270 nM
- inhibition [19]: 17.5%
- inhibition [20]: 28.1%
- inhibition [21]: 0%
- MRT [22]: 1.93 h
- inhibition [23]: 41%
- IC50 (SGC-7901 [24]): > 10000 nM
- inhibition [25]: 13.2%
- inhibition [26]: 0%
- Activity (MKN-45 [27]): Dose-dependent effect
- inhibition [28]: 3.9%
- IC50 (MKN-74 [29]): 3140 nM
- Cmax [30]: 2780 ng/mL
- Activity (SNU-5 [31]): Dose-dependent effect
- IC50 [32]: 21.6 nM
- inhibition [33]: 24.5%
- inhibition [34]: 1.4%
- Activity (Mus musculus [35]): Non-Toxic
- inhibition [36]: 32%
- inhibition [37]: 0%
- Activity (Mus musculus [38]): 18.4 g
- IC50 (MKN-45 [39]): 1260 nM
- clearance [40]: 17.3 mL/min/kg
- inhibition [41]: 68.7%
